“Also recorded” adds a separate entry of the source.
Tested on: MPTP-treated mice
Experiment: Subacute MPTP mouse model of Parkinson's disease: nigral DAergic markers (TH, Nurr1, DAT)
Type: in vivo, C57BL/6 mice
Method: Young adult (9-week old, 25 grams) male C57BL/6 mice were purchased from Charles River Laboratories (Montréal, QC, Canada). Animals were housed 4 per cage under standard conditions with free access to food and water, randomized and handled under the same conditions by one investigator. All experiments were performed in accordance with the Canadian Council on Animal Care and were approved by the Institutional Committee of the Centre Hospitalier de l'Université Laval (CHUL, Québec, Canada). Throughout the experiment, the health status of all mice included in the study was closely monitored for weight loss or other signs of health-related issues. All efforts were made to minimize animal pain and discomfort.
Mice received 7 i.p. injections, twice on the first 2 days of the experimental protocol at an interval of 12 hrs and once a day on 3 subsequent days, of either saline 0.9% or MPTP-HCl (20 mg/kg free base; Sigma, St. Louis, Mo.) dissolved in saline 0.9% prepared fresh (Tremblay et al., 2006; Gibrat et al., 2007; Gibrat et al., 2010).
Beneficial effects of cystamine in parkinsonian mice (cystamine dihydrochloride, Sigma, St. Louis, Mo.) were evaluated with a dose of 10 mg/kg dissolved in sterile saline 0.9% and prepared fresh for daily i.p. injection 1 hr before MPTP administration. The choice of dose and regime of administration was based on our previous findings (Tremblay et al., 2006; Gibrat et al., 2010). The first injection of cystamine was administered either 1) 2 days before the start of MPTP injections (pre-treatment) or 2) 24 hours after the last MPTP dose (post-treatment), and the treatment continued daily for 14 days post injury.
The effects of cystamine on the MPTP toxicity were studied in the following experimental groups: Group I, Saline+Saline; Group II, Saline+Cystamine post-treatment; Group III; Saline+Cystamine pre-treatment; Group IV, MPTP+Saline; Group V, MPTP+Cystamine post-treatment, Group VI, MPTP+Cystamine pre-treatment. In total, 96 mice (n=16 per group) were utilized, monitored daily for weight variation, and ultimately sacrificed by perfusion 24 hrs after the last cystamine (or vehicle) injection.
Experiment 1. All mice were subjected to intracardiac perfusion with RNAse free 0.1 M phosphate-buffered saline (PBS). After intracardiac perfusion, brains were collected and the two hemispheres were separated. The left hemisphere was post-fixed in 4% paraformaldehyde (PFA) for 48 hrs and transferred to 20% sucrose in 0.1 M PBS for cryoprotection. Coronal brain sections of 25 μm thickness were cut onto a freezing microtome (Leica Microsystems, Montreal, QC) and serially collected in anti-freeze solution (monophosphate sodium monobasic 0.2 M, monophosphate sodium dibasic 0.2 M, ethylene glycol 30%, glycerol 20%) and kept at −20° C. until use. Sections from the left hemisphere were utilized for additional immunohistochemistry and in situ hybridization protocols. The right hemispheres were snap-frozen in 2-methyl-butane and then stored at −80° C. until cryostat dissection for HPLC and western-blot (WB) analyses.
For assessment of DAergic neuronal-loss, immunohistochemistry against the enzyme TH was performed as previously described (Tremblay et al., 2006; Gibrat et al., 2009). Briefly, free-floating sections, after several washes and blocking preincubation, were incubated overnight at 4° C. with a rabbit anti-TH (Pel-Freez, Rogers, Ark.; 1:5000). Sections were then incubated for 1 hr at room temperature (RT) in a solution containing biotinylated goat anti-rabbit IgG (Vector Laboratories, Burlington, ON; 1:1500) and subsequently placed in a solution containing avidin-biotin peroxidase complex (ABC Elite kit; Vector Laboratories, Burlington, ON) for 1 hr at RT. Finally, the reaction was developed in 3,3′ diaminobenzidine tetrahydrochloride (DAB) solution (Sigma, St. Louis, Mo.) and 0.1% of 30% hydrogen peroxide (Sigma, St. Louis, Mo.) at RT. […]

[1] = post-treatment: 10 mg/kg i.p. daily started 24 h after last MPTP dose, 14 days
[2] = pre-treatment: 10 mg/kg i.p. daily started 2 days before MPTP

## NCCSSCCN [cystamine, Cystamine]
[1]
  DAT mRNA / DAT mRNA expressing cells in the SNpc: significant recovery; also recorded: higher level; also recorded: comparable number of DAT-positive cells as saline treated animals
  Nurr1 mRNA levels in the SNpc: significant recovery; also recorded: normal levels of Nurr1 mRNA; also recorded: higher level of Nurr1
  TH-positive and Nissl-positive neurons in the SNpc, stereological count: significant recovery of the number of nigral DAergic neurons; also recorded: significantly greater number of TH-positive and Nissl-positive neurons
[2]
  Nurr1 mRNA levels in the SNpc: normalization of Nurr1 mRNA levels
  SNpc neurons expressing DAT: normalization; also recorded: comparable number of DAT-positive cells as saline treated animals
pre-treatment: 10 mg/kg i.p. daily started 2 days before MPTP, continued 14 days post injury
  TH-immunoreactive (TH-positive) neurons in the SNpc, stereological count: increase density of TH-immunoreactive cells in the SNpc

— patent US20140073694A1, “CYSTAMINE ANALOGUES FOR THE TREATMENT OF PARKINSON'S DISEASE” (UNIVERSITE LAVAL, priority 2011, published 2014)
